Converted amounts (≈) assume the structure as drawn. Where two headings read alike, the source gives them in different places.
What was measured:
E. coli = test: MIC against E. coli (Gram-negative control); assay type: cell-based; settings: for MIC: Escherichia coli, Table 5, Gram-negative control
Method: (§1) To further investigate the antibacterial and/or DNA pol III inhibitory activity of various drug compounds, various ester-containing moieties N-linked to the EMAU core were produced as described in Example 1. These prodrugs were assayed for inhibition of B. subtilis DNA pol III and antibiotic activity against a number of bacteria.
(§2) The minimal inhibitory concentrations (MICs) of the four N3-substituted agents and EMAU were determined for B. subtilis (BS), methicillin-sensitive and resistant S. aureus (SA & MRSA), vancomycin-sensitive and resistant E. fecalis (EF& VREF), vancomycin-resistant E. fecium (VREF*), and E. coli (EC) as a Gram-negative control.

MRSA2 = test: MIC against methicillin-resistant S. aureus strain MRSA2; assay type: cell-based; settings: for MIC: Staphylococcus aureus, Table 5
Method: as §1, §2

MRSA = test: MIC against methicillin-resistant S. aureus strain MRSA / MRSA1; assay type: cell-based; settings: for MIC: Staphylococcus aureus, MRSA, Table 5
Method: as §1, §2

B. subtilis DNA pol III = B. subtilis DNA pol III (Bacillus subtilis, UniProt P13267); test: Inhibition of B. subtilis DNA pol III (Ki); assay type: biochemical
Sequence of B. subtilis DNA pol III (P13267 whole entry): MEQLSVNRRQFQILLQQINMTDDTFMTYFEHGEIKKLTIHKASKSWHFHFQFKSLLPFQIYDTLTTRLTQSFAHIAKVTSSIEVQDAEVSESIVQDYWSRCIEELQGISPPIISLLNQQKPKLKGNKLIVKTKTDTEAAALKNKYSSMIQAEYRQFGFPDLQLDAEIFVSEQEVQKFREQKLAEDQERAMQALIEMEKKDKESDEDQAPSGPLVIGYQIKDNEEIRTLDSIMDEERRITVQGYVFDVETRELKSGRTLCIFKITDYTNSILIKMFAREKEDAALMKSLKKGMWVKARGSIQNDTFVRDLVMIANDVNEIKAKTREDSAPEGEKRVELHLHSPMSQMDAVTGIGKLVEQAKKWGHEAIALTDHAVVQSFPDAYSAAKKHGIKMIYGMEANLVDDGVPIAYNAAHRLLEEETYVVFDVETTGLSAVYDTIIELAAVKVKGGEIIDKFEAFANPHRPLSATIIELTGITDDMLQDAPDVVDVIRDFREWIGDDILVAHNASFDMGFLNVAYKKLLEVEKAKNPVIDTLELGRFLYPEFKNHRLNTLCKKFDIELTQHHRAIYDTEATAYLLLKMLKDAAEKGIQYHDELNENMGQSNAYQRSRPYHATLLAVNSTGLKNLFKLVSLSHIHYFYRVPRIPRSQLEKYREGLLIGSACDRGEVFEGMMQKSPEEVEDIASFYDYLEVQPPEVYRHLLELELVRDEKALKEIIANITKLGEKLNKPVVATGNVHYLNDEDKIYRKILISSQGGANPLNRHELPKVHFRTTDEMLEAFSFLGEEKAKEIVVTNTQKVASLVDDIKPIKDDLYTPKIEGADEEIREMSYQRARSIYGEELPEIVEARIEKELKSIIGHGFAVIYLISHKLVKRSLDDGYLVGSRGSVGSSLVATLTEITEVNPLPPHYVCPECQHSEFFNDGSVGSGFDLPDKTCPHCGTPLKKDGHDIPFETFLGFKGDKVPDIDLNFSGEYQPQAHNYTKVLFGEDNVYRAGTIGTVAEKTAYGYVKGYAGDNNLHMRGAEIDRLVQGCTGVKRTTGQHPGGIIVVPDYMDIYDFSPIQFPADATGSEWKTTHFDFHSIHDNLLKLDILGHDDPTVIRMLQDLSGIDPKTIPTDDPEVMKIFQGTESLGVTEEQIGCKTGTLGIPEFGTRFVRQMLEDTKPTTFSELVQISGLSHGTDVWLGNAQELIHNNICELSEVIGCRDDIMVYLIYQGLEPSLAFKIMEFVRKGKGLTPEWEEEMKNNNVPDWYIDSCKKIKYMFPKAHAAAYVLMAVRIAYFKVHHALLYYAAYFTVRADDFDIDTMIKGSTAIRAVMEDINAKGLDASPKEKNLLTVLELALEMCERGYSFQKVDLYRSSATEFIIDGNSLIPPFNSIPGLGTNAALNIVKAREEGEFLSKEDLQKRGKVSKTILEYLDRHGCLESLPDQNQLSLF
Method: as §1
(§3) The competitive inhibitor constants (Ki) of selected EMAU compounds were determined with three different pol Ills: the pol III enzyme from Bacillus subtilis (BS pol III), and the pol III enzymes of the clinically relevant pathogens, Enterococcus fecalis (EF pol III) and Staphylococcus aureus (SA pol 111).

[1] = tested on: S. aureus (methicillin-sensitive Smith strain); test: ip/ip mouse protection against lethal S. aureus infection; assay type: in vivo, mice
Method: Step 1: Screening—Each candidate prodrug is screened for activity in an ip/ip S. aureus protection model. Candidates that display efficacy equivalent to that of HB-EMAU and HB-IMAU are selected for advanced pharmacokinetic analysis and application in the more relevant mouse thigh model of infection.
The efficacy of the propyl derivatives was tested against murine staphylococcal infection in vivo. A simple “ip/ip” system was used, in which 20 gram mice (10 each) were injected ip (intraperitoneally) with a lethal dose (2.3×10^7 CFU) of the methicillin-sensitive Smith strain of S. aureus. The mice were then immediately injected ip with the antibiotic agent as a 1:9 mixture of DMSO:peanut oil. Vancomycin was used as the positive control drug.
Both hydroxybutyl compounds were tested at 10 mg/kg in the mouse protection experiment against lethal S. aureus infection described in Example 4 above.

SA pol III = biological target: T1, SA pol III (Staphylococcus aureus, UniProt P0C1P9); test: Inhibition of S. aureus pol III (Ki); assay type: biochemical; settings: Table 4, average of 3 determinations, standard deviation 13.4%
T1 sequence (P0C1P9 1-1435): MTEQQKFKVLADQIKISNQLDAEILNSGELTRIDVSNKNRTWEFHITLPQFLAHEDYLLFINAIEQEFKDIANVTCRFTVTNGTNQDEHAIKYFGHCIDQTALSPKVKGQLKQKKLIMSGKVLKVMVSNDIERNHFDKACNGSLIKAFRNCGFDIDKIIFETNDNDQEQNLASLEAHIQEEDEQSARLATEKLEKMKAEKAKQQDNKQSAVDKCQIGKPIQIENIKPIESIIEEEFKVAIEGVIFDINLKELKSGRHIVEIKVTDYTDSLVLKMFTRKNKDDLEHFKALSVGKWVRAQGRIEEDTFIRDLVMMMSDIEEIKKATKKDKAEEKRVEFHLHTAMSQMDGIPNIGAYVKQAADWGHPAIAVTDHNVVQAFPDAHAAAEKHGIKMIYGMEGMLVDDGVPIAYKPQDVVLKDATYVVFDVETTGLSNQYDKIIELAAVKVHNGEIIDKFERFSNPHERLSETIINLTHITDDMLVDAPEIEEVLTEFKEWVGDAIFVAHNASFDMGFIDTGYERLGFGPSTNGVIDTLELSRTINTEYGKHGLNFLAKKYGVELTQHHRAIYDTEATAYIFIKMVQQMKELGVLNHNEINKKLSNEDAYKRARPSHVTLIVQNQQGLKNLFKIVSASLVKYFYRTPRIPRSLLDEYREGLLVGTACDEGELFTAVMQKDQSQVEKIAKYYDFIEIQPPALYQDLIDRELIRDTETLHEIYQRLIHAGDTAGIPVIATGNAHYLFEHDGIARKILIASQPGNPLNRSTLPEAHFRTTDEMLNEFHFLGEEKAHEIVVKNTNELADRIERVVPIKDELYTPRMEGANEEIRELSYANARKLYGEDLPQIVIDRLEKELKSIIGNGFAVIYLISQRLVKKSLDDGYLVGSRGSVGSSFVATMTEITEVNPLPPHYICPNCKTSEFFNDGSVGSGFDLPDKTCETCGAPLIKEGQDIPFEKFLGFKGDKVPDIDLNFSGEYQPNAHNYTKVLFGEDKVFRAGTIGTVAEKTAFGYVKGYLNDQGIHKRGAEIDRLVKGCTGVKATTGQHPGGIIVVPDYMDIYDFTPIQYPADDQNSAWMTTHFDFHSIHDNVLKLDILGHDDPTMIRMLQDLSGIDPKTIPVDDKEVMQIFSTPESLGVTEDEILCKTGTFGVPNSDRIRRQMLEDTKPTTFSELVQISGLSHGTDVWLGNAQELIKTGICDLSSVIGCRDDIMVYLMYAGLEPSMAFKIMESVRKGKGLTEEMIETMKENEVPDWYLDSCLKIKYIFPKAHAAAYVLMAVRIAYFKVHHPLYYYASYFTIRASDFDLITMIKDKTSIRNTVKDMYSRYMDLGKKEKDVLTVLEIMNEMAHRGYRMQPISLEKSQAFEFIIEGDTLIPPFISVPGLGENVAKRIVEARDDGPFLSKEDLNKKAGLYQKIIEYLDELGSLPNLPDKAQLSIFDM
Method: as §3

[2] = tested on: vancomycin-resistant E. fecium; test: MIC against vancomycin-resistant E. fecium (VRE, VREF*); assay type: cell-based; settings: for MIC: Enterococcus, Table 5, vancomycin-resistant E. fecium
Method: as §1, §2

B. subtilis [3] = test: Antibacterial activity of crude compounds made by small scale synthesis; assay type: cell-based; settings: Bacillus subtilis; crude reaction mixtures dissolved in DMSO, assayed directly
Method: 6-Anilinouracils were synthesized using small scale synthetic methods. One milligram quantities of 3-(3-methoxypropyl)-6-chlorouracil were heated with 42 substituted anilines in micro-test tubes at 130° C. for 20 minutes. The reaction mixtures were dissolved in DMSO and assayed directly for antibacterial activity.

S. aureus = test: MIC against S. aureus (methicillin-sensitive); assay type: cell-based; settings: for MIC: Staphylococcus aureus
Method: as §1, §2

EF pol III = EF pol III (Enterococcus faecalis, UniProt Q831W8); test: Inhibition of E. fecalis pol III (Ki); assay type: biochemical; settings: Table 4, average of 3 determinations, standard deviation 13.4%; read-out: KI EF pol III
Method: as §3

[4] = tested on: vancomycin-resistant E. fecalis; test: MIC against vancomycin-resistant E. fecalis (VREF); assay type: cell-based; settings: Table 5, vancomycin-resistant E. fecalis
Method: as §2

E. fecalis = test: MIC against E. fecalis; assay type: cell-based; settings: for MIC: Table 5, vancomycin-sensitive, read-out: MIC EF
Method: as §1, §2

B. subtilis [5] = test: MIC against B. subtilis; assay type: cell-based; settings: for MIC: Bacillus subtilis, Table 5, read-out: MIC BS
Method: as §1, §2

Solubility in water = assay type: physicochemical; settings: 25° C.
Description: The prodrug 3-(L-valylbutyl)-EMAU (Val-B-EMAU, 4a) was synthesized as a hydrochloride. The structure was confirmed by NMR. The compound had high solubility in water. […] Two different synthesis methods were used.

[6] = Plasma pharmacokinetics after intravenous administration to mice; assay type: in vivo; settings: mouse, plasma, intravenous, 25 mg/kg, tail vein, 25 mg/kg in saline (FIG. 1), read-out: half life of Val-B-EMAU in plasma
Method: (d) Elimination halfife and apparent volume of distribution. An appropriate dose of each agent (the maximum permitted by the results of the above dose/toxicity studies) is injected via the tail vein to a series of mice (e.g., 12). At specific times following injection (e.g., 10, 20, 30, 45, 90, and 150 minutes), mice (e.g., a pair) are restrained in DecapiCones and decapitated, and their blood collected individually by exsanguination into a sterile test tube.
The blood samples are centrifuged to yield clear plasma (yield: 0.4-0.6 ml per mouse). Approximately 0.2 ml of the plasma sample are used for HPLC analysis, using conditions established herein for quantitation of the compound. The individual plasma levels for each time point are averaged, and the data are analyzed to estimate Vd and half-life by established methods (Gibaldi, M. and D. Perrier. Pharmacokinetics. Marcel Dekker, Inc., New York, 1975).
Solutions of Val-B-EMAU in saline were next injected into the tail veins of mice at a dose of 25 mg/kg body weight. Animals were sacrificed at various times after dosing, and plasma was isolated and subjected to HPLC analysis.
Each value plotted in FIG. 3 represents the average of four measurements, each in a different animal.

E. fecium = test: MIC against E. fecium; assay type: cell-based; settings: Table 2
Method: as §1

[7] = Prodrug conversion in mouse plasma in vitro (HPLC); assay type: in vitro ADME
Method: (§4) The conversion rate of prodrugs can be measured by first establishing a reverse phase HPLC method for the detection of both prodrug and drug in a biological sample such as plasma or serum. A stock solution of prodrug, usually in saline, is diluted 1:5 in animal plasma or saline. […] If necessary, the sample can be thawed in a 37° C. water bath. Aliquots of the diluted sample are taken at 15, 30, 45, 60, 90, 120, and 180 minutes. Longer time points are usually needed for saline solutions because the rates of spontaneous hydrolysis are much longer than for enzyme-catalyzed hydrolysis. The aliquots are analyzed at a 1:10 dilution using HPLC, and the fraction of prodrug which has been converted at each time point calculated.
(§5) The rate of formation of the drug and the rate of decay of the prodrug had doubling and half-life times, respectively, of about 30 minutes. In contrast, the estimated half-life of Val-B-EMAU in physiological saline at 37° C. was greater then 5000 hours. The mechanism for the decomposition of Val-B-EMAU by plasma is presumed to involve esterases in the circulation.
(§6) To further define the conversion rate of Val-B-EMAU (4a), the prodrug was incubated in 80% mouse plasma.

[8] = Prodrug stability in physiological saline; assay type: physicochemical
Method: as §4, §5, §6

[9] = Table 4, average of 3 determinations, standard deviation 13.4%, read-out: KI Bs pol III
[10] = Table 5, methicillin-sensitive, read-out: MIC SA

SMILES	MIC (E. coli) [µg/mL]	MIC (MRSA2) [µg/mL]	MIC (MRSA) [µg/mL]	Ki (B. subtilis DNA pol III; [9]) [nM]	Ki (SA pol III) [nM]	MIC [2] [µg/mL]	MIC (S. aureus; [10]) [µg/mL]	Ki (EF pol III) [nM]	MIC [4] [µg/mL]	MIC (E. fecalis) [µg/mL]	MIC (B. subtilis [5]) [µg/mL]	also measured
CCc1cc(Nc2cc(=O)n(CCCOC)c(=O)[nH]2)ccc1C [MP-EMAU]	> 35	3.9 (≈ 12.3 µM)	3.9 (≈ 12.3 µM)	240	820	3.9 (≈ 12.3 µM)	3.9 (≈ 12.3 µM)	190	1.9 (≈ 5.99 µM)	1.9 (≈ 5.99 µM)	0.5 (≈ 1.58 µM)	animals protected ([1]; 10 mg/kg ip): roughly 50%; animals protected ([1]; lower dose (5 mg/kg) ip): none; MIC (B. subtilis [3]): 3.13 µg/mL (≈ 9.86 µM)
CCc1cc(Nc2cc(=O)n(CCOC)c(=O)[nH]2)ccc1C [ME-EMAU]	> 35	12.4 (≈ 40.9 µM)	8.3 (≈ 27.4 µM)	190	820	8.3 (≈ 27.4 µM)	10.3 (≈ 34 µM)	160	6.2 (≈ 20.4 µM)	6.2 (≈ 20.4 µM)	1 (≈ 3.3 µM)	–
CCc1cc(Nc2cc(=O)n(CCCCOC(=O)[C@@H](N)C(C)C)c(=O)[nH]2)ccc1C [Val-B-EMAU, 3-(L-valylbutyl)-EMAU]	–	–	–	–	–	–	–	–	–	–	–	MIC E. coli (E. coli; Table 2): >33 μ/ml; solubility (Solubility in water): > 10000 µg/mL; MIC MRSA2 (MRSA2; Table 2): 33 μ/ml; MIC MRSA (MRSA; Table 2): 33 μ/ml; Ki (B. subtilis DNA pol III; Table 1, read-out: Ki B. subtilis pol III): 530 nM; Ki (B. subtilis DNA pol III; Table 2, prodrugs having the EMAU core, read-out: Ki B. subtilis DNA Pol III): 530 nM; half-life [6]: 34 min; MIC VRE ([2]; Table 2, vancomycin-resistant E. fecium): 8 μ/ml; MIC E. fecium (E. fecium): 33 μ/ml; MIC (S. aureus; Table 1, read-out: MIC S. aureus): < 20 µg/mL; MIC S. aureus (S. aureus; Table 2): 17 μ/ml; half-life ([7]; 80% mouse plasma, 37° C. (FIG. 2), read-out: prodrug half-life): 37.8 min; half-life ([7]; mouse plasma, 37° C., HPLC, read-out: half-life of decay of the prodrug): ~30 min; half-life ([8]; 37° C., read-out: estimated half-life in physiological saline): > 208 days; half-life ([8]; b125, read-out: half-life in physiological saline): 18.8 to 20.8 days; MIC E. fecalis (E. fecalis; Table 2): 17 μ/ml; MIC B. subtilis (B. subtilis [5]; Table 2): 4 μ/ml

Source: patent US6448256B1, “Antibiotic prodrugs” (University of Massachusetts, priority 1999, dated 2002)
